# In PMC8117003, “Pharmacokinetic Profile and Oral Bioavailability of Diosgenin, Charantin, and Hydroxychalcone From a Polyherbal Formulation” (Frontiers in Pharmacology, 2021):
# Where “and” joins values, the source holds several entries; their conditions need not be identical. Equal values may be shown once. Read-outs that look alike come from different tables or passages of the source.
# What was measured:
# [1] = Pharmacokinetics and absolute bioavailability of pure marker compounds after single oral and i.v. dose; type: in vivo, male Wistar rats; conditions: for MRT: MRT (mean residence time); for half-life: t 1/2 (plasma half-life); for k el: plasma, read-out: Kel (elimination rate constant) (converted); for k el / Kel (elimination rate constant): rat plasma
# Description: Plasma concentrations of active marker compounds were determined using validated high-performance thin layer chromatography (HPTLC) with the UV detection method.
# The plasma samples (150 µl) were deproteinized by adding mixture of methanol: dichloromethane (1:1), followed by vortex mixing at 3000 rpm for 5 min. The supernatant was separated and further extracted with about 1.5 ml of ethyl acetate by mixing on vortex mixer at 3000 rpm for 10 min. The ethyl acetate layer was then collected and evaporated to dryness, followed by reconstitution with mobile phase (200 µl) containing chloroform: glacial acetic acid: methanol: water ((4.0:3.0:2.0:1.0) v/v and 100 µl was applied on a HPTLC plate. The optimized HPTLC conditions for development and quantification of the constituents is given in Table 2.
# Absolute bioavailabilities of marker compounds viz. diosgenin, charantin, and hydroxychalcone were determined in male Wistar rats. The animals weighing 300–350 gm were fasted overnight before the dosing with free access to drinking water throughout the experimental period. For the purpose of dosing all the three marker compounds viz, diosgenin, charantin, and hydroxychalcone were suspended in water to make the dose of 15 mg/kg per oral to be administrated to the groups of […]. The animals were divided into two groups with six animals in each group. The first group received the marker compounds in the dose of 1.5 mg/kg i.v. via lateral tail vein, while the second group received the marker compounds in the dose of 15 mg/kg p.o. The rats were anesthetized using ether and blood samples were collected through puncturing the retro-orbital plexus at 0, 0.17, 0.5, 1, 2, 4, 6, 12, and 24 h time points. Blood samples were centrifuged to separate plasma and stored at −20°C until bioanalysis.
# Non-compartmental analysis of data was performed using statistical moment theory. The peak plasma concentration (Cmax) and the corresponding time (Tmax) were directly obtained from the raw data.
# The area under the plasma concentration vs. time curve upto the last quantifiable point, AUC(0-t), was calculated by the linear and log-linear trapezoidal rule summation: AUC(0−t) =∑C0+Ct/2× Tt− T0.
# The AUC(0-t) was extrapolated to infinity (i.e., […]) by adding the quotient of Clast/Kel, AUC(t−∞) = Clast/Kel,
# Kel was calculated by the linear regression of the log-transformed concentrations of the last three data points in the terminal phase. Kel = −slope × 2.303.
# The half-life of the elimination phase was obtained from using the relationship, t 1/2 = 0.693/Kel.
# Clearance was calculated using the relationship Cl = Vd × Kel
# Apparent volume of distribution was calculated using relationship Vd = Dose Administered/Plasma concentration.
# Absolute oral bioavailability (F) was calculated using relationship F = {[AUC (oral)/AUC (iv)] × [Dose (iv)/Dose (oral)]} × 100.
# [2] = Stability of marker compounds (bioanalytical HPTLC, quality control samples); type: in vitro ADME, rat; conditions: for Freeze thaw stability / Short-term room temperature stability: rat plasma
# Description: Sample stability was determined by analyzing samples for quality control for analyte’s stock stability in solvent, refrigerator stock solution stability, freeze and thaw stability, and bench top stability. The stability experiments were carried out to evaluate the degradations of the marker compounds under different experimental conditions. […] As per the acceptance criteria, % ratio (Stability/comparison) should be within 85–115%; from the above results, it was concluded that all the marker compounds were within the acceptance criteria for stability study Table 7.
# [3] = male, Wistar, rat, in vivo, iv, 1.5 mg/kg
# [4] = male, Wistar, rat, in vivo, po, 15 mg/kg
# [5] = pure marker, oral single dose 15 mg/kg, 15 mg/kg
molecule,measurement,setting,value
C[C@@H]1CC[C@@]2(OC1)O[C@H]1C[C@H]3[C@@H]4CC=C5C[C@@H](O)CC[C@]5(C)[C@H]4CC[C@]3(C)[C@H]1[C@@H]2C [Diosgenin],bioavailability,"[1]; male, Wistar, rat, in vivo",9 ± 0.2%
same,AUC 0-∞,[1]; [3],4957.5 ± 440 ng·h/mL
same,Cl (drug clearance),[1]; [3],0.2221 ± 0.05 mL/h/kg
same,Cmax,[1]; [3],612.2 ± 100 ng/mL
same,MRT (mean residence time),[1]; [3],9.9420 ± 0.90 h
same,Vd (apparent volume of distribution),[1]; [3],0.0025397 ± 0.00057 L/kg
same,t 1/2 (plasma half-life),[1]; [3],7.9300 ± 0.37 h
same,AUC(0-inf),[1]; [3],4470 ng·h/mL
same,clearance,"[1]; male, Wistar, rat, in vivo, iv, 1.5 mg/kg, Cl (drug clearance)",220 mL/h/kg
same,Cmax,"[1]; male, Wistar, rat, in vivo, iv, 1.5 mg/kg, Cmax",570 ng/mL
same,MRT,[1]; [3],8.2 h
same,Vd,"[1]; male, Wistar, rat, in vivo, iv, 1.5 mg/kg, Vd (apparent volume of distribution)",2.5 L/kg
same,half-life,[1]; [3],7.56 h
same,AUC 0-∞,[1]; [4],4475.3 ± 60 ng·h/mL
same,Cl (drug clearance),[1]; [4],2.5143 ± 0.09 mL/h/kg
same,Cmax,[1]; [4],577.3 ± 12 ng/mL
same,MRT (mean residence time),[1]; [4],8.2008 ± 0.15 h
same,Tmax,[1]; [4],1 h
same,t 1/2 (plasma half-life),[1]; [4],7.5638 ± 0.21 h
same,AUC(0-inf),[1]; [4],4950 ng·h/mL
same,Cmax,"[1]; male, Wistar, rat, in vivo, po, 15 mg/kg, Cmax",610 ng/mL
same,MRT,[1]; [4],9.94 h
same,half-life,[1]; [4],7.93 h
same,k el,"[1]; male, Wistar, rat, iv, 1.5 mg/kg, pure marker, IV single dose 1.5 mg/kg",2.5e-05 s⁻¹
same,k el,"[1]; male, Wistar, rat, po, 15 mg/kg, pure marker, oral single dose 15 mg/kg",2.22e-05 s⁻¹
same,AUMC 0-∞,"[1]; pure marker, IV single dose 1.5 mg/kg",17.3937 ± 2.10 µg.h^2/ml
same,Kel (elimination rate constant),"[1]; pure marker, IV single dose 1.5 mg/kg, 1.5 mg/kg",0.0875 ± 0.004 h⁻¹
same,AUMC 0-∞,"[1]; pure marker, oral single dose 15 mg/kg",36.700 ± 0.77 µg.h^2/ml
same,Kel (elimination rate constant),[1]; [5],0.0917 ± 0.003 h⁻¹
same,Ka (rate of absorption),[1]; [5],1.1 h⁻¹ and 1.1 ± 0.10 h⁻¹
same,Refrigerator standard stock solution stability,[2]; 0.4 µg/ml,91.73 ± 0.46%
same,Room temperature standard stock solution stability,[2]; 0.4 µg/ml,85.18 ± 0.45%
same,Refrigerator standard stock solution stability,[2]; 0.8 µg/ml,90.24 ± 1.13%
same,Room temperature standard stock solution stability,[2]; 0.8 µg/ml,84.86 ± 1.23%
same,Refrigerator standard stock solution stability,[2]; 1.2 µg/ml,89.56 ± 2.21%
same,Room temperature standard stock solution stability,[2]; 1.2 µg/ml,85.03 ± 2.16%
same,Degradation in plasma,"[2]; plasma, under different experimental conditions",no significant degradation
same,Freeze thaw stability,[2]; 0.4 µg/ml,87.06%
same,Short-term room temperature stability,[2]; 0.4 µg/ml,98.64%
same,Freeze thaw stability,[2]; 0.8 µg/ml,94.52%
same,Short-term room temperature stability,[2]; 0.8 µg/ml,97.90%
same,Freeze thaw stability,[2]; 1.2 µg/ml,97.86%
same,Short-term room temperature stability,[2]; 1.2 µg/ml,98.25%
Charantin,Absolute bioavailability,"[1]; rat, in vivo",8.18 ± 0.36%
same,AUMC 0-∞,"[1]; rat, in vivo, iv, 1.5 mg/kg",182.9438 ± 1.74 µg.h^2/ml
same,AUMC 0-∞,"[1]; rat, in vivo, po, 15 mg/kg",176.7245 ± 1.83 µg.h^2/ml
same,Cl (drug clearance),"[1]; rat, in vivo, po, 15 mg/kg",5.9268 ± 0.31 mL/h/kg
same,Tmax,"[1]; rat, in vivo, po, 15 mg/kg",6 h
same,Degradation in plasma,[2],no significant degradation
